# Source: patent US20220096529A1, “2-HYDROXYPROPYL-BETA-CYCLODEXTRIN (HPBETACD) FOR USE IN THE TREATMENT OF BREAST CANCER” (UNIVERSITY OF THE WITWATERSRAND, JOHANNESBURG, priority 2019, published 2022)
# “Also recorded” adds a separate entry of the source.
# Columns and labels:
# MDA-MB-231 cells [1] = assay: Mitochondrial outer membrane potential assay (MOMP); assay type: cell-based, human; details: MDA-MB-231, 10 mM, 24 hrs
# Method: (§1) One of the key hallmarks of apoptosis is the loss of mitochondrial membrane potential. To investigate that aspect we did a MOMP assay which validates our Cell-APOPercentage assay. This assay was tested on three cell lines MCF7, MDA-MB-231 & MRC-5. The top right and bottom hand quadrants of each plot represents healthy (FL2-A) and apoptotic (FL1-A) cells respectively (see FIGS. 13 to 15).
# (§2) From the results obtained from MTT (IC50 values) and Cell-APOPercentage assays it was quite evident that ˜10 mM HPβCD caused cellular growth inhibition through apoptosis in cancer cells and had little or no effect in normal cells. Therefore, we selected just 10 mM HPβCD going forward as the only working concentration for HPβCD treatment. 24 hrs time point was selected (HPβCD & 10 mM H2O2) because mitochondrial membrane potential loss is an early cellular event.
# MRC-5 cells [2] = assay: as above; assay type: cell-based, human; details: MRC-5, 10 mM HPβCD, 24 hrs
# Method: as §1, §2
# MCF7 cells [3] = assay: as above; assay type: cell-based, human; details: MCF7, 10 mM, 24 hrs
# Method: as §1, §2
# MDA-MB-231 cells [4] = assay: MTT growth inhibition assay; assay type: cell-based, human
# Method: (§3) Cells were cultured in appropriate medium supplemented with 10% FCS, penicillin (100 U/ml), and streptomycin (100 μg/ml) (Gibco) at 5% CO2 in a 37° C. incubator.
# (§4) Four different cell lines were used MCF7 (ER+). MDA-MB-231 (ER−), MRC-5 (Lung Fibroblasts) and HEK-293 (Embryonic kidney). MRC-5 and/or HEK-293 were used as control cell lines depending on availability.
# (§5) In order to determine whether HPβCD has the ability to induce cancer cell death a primary screening using an MTT assay was performed. Three different time points 24 hrs.
# MCF7 cells [5] = assay: MTT growth inhibition assay; assay type: cell-based, human
# Method: as §3, §4, §5
# MCF7 cells [6] = assay: Filipin cholesterol staining; assay type: cell-based, human
# MDA-MB-231 cells [7] = assay: Mice xenograft, triple negative breast cancer; assay type: in vivo, Nude Mice, MF-1 strain
# Method: Since the potency of HPβCD against breast cancer was established in our in vitro assays, a thorough investigation in a mice model was conducted (Nude Mice. MF-1 strain). MCF-7 and MDA-MB-231 cells were injected in 32 mice (16 for each cell type) and after tumour development, was treated with HPβCD (3000 mg/kg b.w.). Thrice a week dose treatment plan was followed throughout the study.
# To examine if HPβCD can be used as a future anti-breast cancer drug, mice xenografts were prepared. MCF7 cells (5 million) cells were injected in 16 mice with weekly β-estradiol supplementation. The study for triple negative induced breast cancer (MDA-MB-231) is complete. Up to 4 million cells were injected in 16 mice. This was subdivided in three more groups namely: Late stage, intermediate stage and early stage estrogen negative cancer. 4 mice were grouped as untreated (not receiving HPβCD), 4 for treated (late stage), 3 for treated (intermediate stage) and 3 for treated (early stage).
# This is because MDA-MB-231 cells are extremely aggressive in nature and that is the reason there is any adequate treatments except the side effects prone to chemotherapy. These 4 mice had to be euthanized at this point because of humane end points. In the late stage treated group, the treatment commenced when the size of the tumour was in between 900 mm^3 to 1350 mm^3 (FIG. 30 A, B, C).
# In the intermediate stage group (n=3), the treatment commenced when the size of the tumours reached […]. Again, after 10 doses of HPβCD treatment we saw the average size of the tumours went down to […] which is a staggering 94% decrease (FIG. 31 B, C) as compared to the untreated group. This was remarkable considering how invasive MDA-MB-231 cells are and HPβCD's ability to tame them was quite phenomenal. Finally, in the early stage group (n=3), the treatment commenced when the tumour size was 20 mm^3 (FIG. 33 A. B). […] These 3 mice were then kept for a period of 4 weeks to check for relapse of tumour because estrogen negative tumours have an extreme propensity to recur.
# MDA-MB-231 cells [8] = assay: Cell-APOPercentage apoptosis assay; assay type: cell-based, human; details: 24 hrs
# Method: (§6) APOPercentage assays gives a measure of overall apoptosis in the cell. Apoptosis is an early event and therefore just one time point (24 hrs) was selected and tested on four cell lines MCF7, MDA-MB-231, MRC-5 & HEK-293 cells. 10 μM Plumbagin was used a positive control as opposed to 40 μM from MTT because higher concentrations of plumbagin was way too toxic for the cells and to capture the early activity, optimal dosage was required. To confirm the growth inhibition obtained from the MTT assay was actually due to apoptosis, a Cell-APOPercentage Apoptosis assay was performed according to known methods.
# MRC-5 cells [9] = assay: Cell-APOPercentage apoptosis assay; assay type: cell-based, human; details: 24 hrs
# Method: as §6
# MCF7 cells [10] = assay: Cell-APOPercentage apoptosis assay; assay type: cell-based, human; details: MCF7, 10 mM HPβCD, 24 hrs
# Method: as §6
# HEK-293 cells = assay: Cell-APOPercentage apoptosis assay; assay type: cell-based, human; details: 24 hrs
# Method: as §6
# [11] = intermediate stage, 3000 mg/kg b.w., 10 doses
substance,measurement,setting,value
2-hydroxypropyl-β-cyclodextrin [HPβCD],apoptotic cells / cell death (loss of mitochondrial membrane potential),MDA-MB-231 cells [1],78.1%
same,apoptotic cells,MRC-5 cells [2],12.8%
same,non-apoptotic/healthy population,MRC-5 cells [2],98.2%
same,apoptotic population (loss of mitochondrial membrane potential),MCF7 cells [3],92.1%
same,growth inhibition,"MDA-MB-231 cells [4]; MDA-MB-231, 10 mM HPβCD, all three time points",~45%
same,IC50,"MDA-MB-231 cells [4]; MDA-MB-231, 24 hrs",12.3 mM
same,IC50,"MDA-MB-231 cells [4]; MDA-MB-231, 48 hrs",11.2 mM
same,IC50,"MDA-MB-231 cells [4]; MDA-MB-231, 72 hrs",8.56 mM
same,growth inhibition,"MCF7 cells [5]; MCF7, 10 mM HPβCD, all three time points (24, 48, 72 hrs)",~45%
same,IC50,"MCF7 cells [5]; MCF7, 24 hrs",11.1 mM
same,IC50,"MCF7 cells [5]; MCF7, 48 hrs",9.82 mM
same,IC50,"MCF7 cells [5]; MCF7, 72 hrs",7.45 mM
same,Filipin fluorescence compared to untreated,"MCF7 cells [6]; MCF7, 10 mM HPβCD, 24 hrs, ImageJ",four times less fluorescence
same,cholesterol (Filipin staining) in treated vs untreated cells,"MCF7 cells [6]; MCF7, FIG. 51",decreased cholesterol
same,tumour outcome,"MDA-MB-231 cells [7]; early stage (20 mm^3 at start), 3000 mg/kg b.w., 10 doses, 3000 mg/kg",completely healed; also recorded: Complete healing of tumour
same,average size of the tumours,MDA-MB-231 cells [7]; [11],784.18 mm3
same,tumour reduction compared to the untreated group,MDA-MB-231 cells [7]; [11],94%
same,tumour reduction compared to the untreated group,"MDA-MB-231 cells [7]; late stage, 3000 mg/kg b.w. intraperitoneally, 10 doses",73.9%
same,relapse of tumour,"MDA-MB-231 cells [7]; three healed early stage mice, 4 weeks",no recurrence of the tumour; also recorded: no relapse at all
same,cell death (apoptosis),"MDA-MB-231 cells [8]; MDA-MB-231, 10 mM HPβCD",around 40%
same,maximum cell death (apoptosis),"MDA-MB-231 cells [8]; MDA-MB-231, 50 mM HPβCD",~70%
same,cell death (apoptosis),"MRC-5 cells [9]; MRC-5, 20 mM HPβCD",~15%
same,cell death (apoptosis),"MRC-5 cells [9]; MRC-5, 50 mM HPβCD",~18%
same,cell death (apoptosis),"MRC-5 cells [9]; MRC-5, till 10 mM HPβCD",almost zero percentage cell death
same,cell death (apoptosis),MCF7 cells [10],around 45%
same,cell death (apoptosis),"HEK-293 cells; HEK-293, 20 mM HPβCD",~15%
same,cell death (apoptosis),"HEK-293 cells; HEK-293, 50 mM HPβCD",~18%
same,cell death (apoptosis),"HEK-293 cells; HEK-293, till 10 mM HPβCD",almost zero percentage cell death
